Test system: live 4T1 tumor cells
Assay: Serum IgG antibody binding to live 4T1 tumor cells
Assay type: in vivo, mice
Details: inactivated 4T1 vaccine day 1 and 14; serum 1:1000 dilution
Procedure: The vaccines were given subcutaneously in equal volumes in both the left and right forelimb of the mice, close to the foot. Mice received 1.7×10^6 cells per mouse per vaccine. Vaccines were given on day 1 and then again on day 14. Mice were euthanized 8 days after the booster vaccine was given and spleen and blood was collected. The serum from these mice was screened against live 4T1 tumor cells for IgG antibody binding by incubating serum with the cells at either a 1:500 or a 1:1000 dilution, staining with a fluorescently-labeled donkey anti-mouse secondary antibody, then subtracting out the background staining (normal mouse serum at 1:500 and 1:1000).

## CC(C)Cn1cnc2c(N)nc3ccccc3c21 [Imiquimod, imiquimod]
  serum IgG binding to live 4T1 cells (staining): variable amounts

From patent publication US12280039B2, “Cancer vaccine compositions and methods of use thereof” (priority 2018, dated 2025)
